Experimental data published in patent publication US9045474B2, “Compounds and compositions for mitigating tissue damage and lethality” (The Regents of the University of California, priority 2010, dated 2015).
Several values for one entry are separate records, joined by “and”; a condition that tells them apart may be missing. Equal entries are not always repeated. Entries after “also recorded” stand apart in the source; their conditions may differ.

What was measured:
DEL RS112 tester strain = assay: DEL assay, damage by chemical carcinogen MMS; format: cell-based, Saccharomyces cerevisiae; settings: 15 uM, 1 hrs after exposure to MMS
Source text: A DEL assay, described above, is used for assessing mitigation of damage induced by chemical carcinogens by compounds of invention.
Tests in this example show administration of Yel001 and Yel002 confers reduction against chemical carcinogen Methyl methanesulfonate (MMS) in vitro.
Reduction of cytotoxicity and genotoxicity with Yel002 is p<0.007 and p<0.04 restively; p-values for Yel001 are 0.0007 (genotoxicity) and 0.1 for cytotoxicity.

primary keratinocytes = assay: Proliferation of primary keratinocytes after 5Gy irradiation; format: cell-based, human; settings: 5 uM, cultured 11 days
Procedure: After the IR the cells were treated with Yel002 and cultured for 11 days.

C3H mice [1] = assay: Radioprotection experiments in C3H mice (8Gy, compound before exposure); format: in vivo, mouse; settings: 8Gy (LD100/30), 75 mg/kg
Source text: Only the results for Compound 4 are significant at Day 14 post irradiation. Irradiated controls died on Day 13 while most of the treated mice survived to Day 18, and mice in group 4 and 1 have survived to Day 24. The limitation of this study was the number of mice in each group due to the small quantities of the commercially available compounds.

C3H mice [2] = assay: Toxicity experiments in C3H mice; format: in vivo, mouse; settings: 150 mg/kg, 75 mg/kg and 5 mg/kg; 120 days following the injections
Procedure: Having seen no adverse effects of the chemicals alone on mammalian cell models we performed a preliminary toxicity study on a group of C3H mice. […] In a pilot reproductive toxicity study, 12, week old female mice were paired up with 6 week old male mice and checked daily for the presence of a characteristic “plug” in the female vaginal canal as an indication of mating. As soon as the mating has occurred, males were removed and the females were treated weekly with 75 mg/kg s.c. throughout the gestation period and until the pups were weaned off (8 week treatment course). After weaning, treatment of the offspring was initiated at the same 75 mg/kg s.c. weekly dose. Controls were injected s.c. on the same schedule with the carrier (1N saline). Five treated and five control females gave birth to the same average number of pups per litter (n=6) without any detectable toxicities to the other. 3 litters of each treated and control groups survived to continue the study. No pathologies, toxicities nor adverse effects were observed. There are no developmental or teratogenic deficiencies in mice, average weights (21 g) are the same in both groups also.

[3] = tested on: RS112 strain of S. cerevisiae; assay: Classical DEL plating assay, radioprotection at 2000Gy irradiation; format: cell-based, Saccharomyces cerevisiae
Procedure: All DEL assays utilize the established methodology of “recombination” (deletion of the interruption segment and consequent end joining of the adjacent sequences) of a disrupted histidine gene that renders yeast cells exposed to radiation capable of growing on media lacking this amino acid. In the classical DEL assay radiation sensitive RS112 strain of S. cerevisiae is added to the compounds of interest suspended in complete media, incubated for 2 hrs, and irradiated at 2000Gy. The cells are then plated onto full (+13) and lacking histidine (−His) agar plates. After incubation the colonies are scored and recombination events are calculated. The efficacy of the compound is evaluated as a reduced fraction of DEL recombinations in comparison to that of irradiated controls without treatment. Radioprotectors decrease the frequency of such recombination frequencies after radiation exposure.
A plasmid with an internal fragment of the HIS3 gene, which is responsible for histidine synthesis in yeast, without which cells cannot survive in media lacking histidine, has been integrated at the HIS3 locus, yielding an integrative disruption of the HIS3 gene (Schiestl, R. H., et al., Genetics, 1988. 119(2): p. 237-47). […]

OMM lymphocytes = assay: γH2AX assay, cigarette smoke extract induced double strand breaks; format: cell-based, mouse; settings: 3 puff/mL cigarette smoke extract, 6 and 24 hrs, Ogg−/− Myh−/− mice
Procedure: Whole peripheral blood lymphocytes were taken from WT, and OMM double knockout mice (mice deficient in DNA repair pathways observed in smoking-induced lung cancer) and were administered 3 puff/mL of Cigarette smoke extract (CSE) alone or co-incubation of 3 puff/mL Cigarette smoke extract and 10 uM Yel 002 for 3, 6, and 24 hrs and the amount of double stranded breaks were assessed via γH2AX assay. […] Statistical significance was assessed via a 1 way ANOVA test with Tukey's post-hoc analysis. […] Statistical significance was assessed via a 1 way ANOVA test with Tukey's post-hoc analysis. N=3 in each group.

[4] = tested on: yeast DEL tester strain RS112; assay: DEL assay, UV radiation-induced damage; format: cell-based, Saccharomyces cerevisiae
Procedure: DEL tester strain was irradiated with 4000 J/m^2 in the ultraviolet range and treated with Yel001 or Yel002 at 60 minutes at the concentration of 15 uM.

C3H mice [5] = assay: Mitigation of radiation-induced lethality in C3H mice (8Gy, LD100/30)
Procedure: Radiomitigation studies were conduced by pre-treating C3H mice with the compounds of interest at as concentration of 75 mg/kg and at 24 hrs and 1 hr before an 8 Gy exposure. On a 5×24 mitigation treatment protocol mice were first lethally irradiated with 8 Gy and 24 hrs later received the first subcutaneous injection with the compound suspension with subsequent injections at 48, 72, 96, and 120 hrs. The concentration of the compound in the suspension was 75 mg/kg carrier with either 1N saline or phosphate buffer solution (PBS).
C3H mice in the mitigation experiment were irradiated with 8Gy and then injected with 75 mg/kg 1 hr post exposure and then again 25 hrs post exposure.

C3H mice [6] = assay: Recovery of the hematopoietic system after 6 Gy irradiation; format: in vivo, mouse
Source text: WBC-total white blood cells (K/uL), NE—neutrophils (K/uL), and LY—lymphocytes (K/uL). With 1—tail, Student's t-Student's t-test, WBC and NE, along with monocytes, eosinophils, and basophils (data not shown) are p<0.05.
RBC— red blood cells (M/uL), HB-hemoglobin (g/dL), and HCT-hematocrit (%).

With `COc1ccc2cc(-c3nc4ccc(C)cn4c3NCc3ccco3)c(=O)[nH]c2c1` [Yel002] the “genotoxicity and cytotoxicity by MMS” value (DEL RS112 tester strain) was “reduction in genotoxicity and cytotoxicity; also recorded: can be mitigated”, the “proliferation as compared to controls” value (primary keratinocytes) was “increased proliferation” and the “survival versus 8 Gy control group” value (C3H mice [1]; listed as 5) was “noticeable difference in survival”. The “survival versus 8 Gy control group” value (C3H mice [1]; listed as Compound 5) was “increase in survival”, the “adverse physiological or behavioral effects” value (C3H mice [2]) was “did not show any adverse physiological nor behavioral adverse effects” and the “radioprotector characteristics (genotoxicity and cytotoxicity protection)” value [3] was “radioprotector characteristics”. The “double strand breaks / average γH2AX per cell” value (OMM lymphocytes) was “reduces the number of DNA double strand breaks”, the “double strand breaks / average γH2AX per cell” value (OMM lymphocytes; listed as YEL 002) was “significantly reduces cigarette smoke induced double strand breaks; also recorded: significantly decreases the amount of average γH2AX per cell” and the “UV genotoxicity and cytotoxicity” value ([4]; 15 uM, P<0.05) was “reduces cell death and genotoxicity; also recorded: significantly reduces genotoxicity and cytotoxicity”. For the same compound, the survival ([4]; 4000 J/m^2 UV, 15 uM at 60 minutes, untreated 0.64%) was 1.84%, the “mitigation efficacy” value (C3H mice [5]; 8Gy, 75 mg/kg 1.25 protocol) was “show activity” and the “mice survived LD100/30 irradiation” value (C3H mice [5]; 8Gy, 75 mg/kg at 1 hr and 25 hrs post exposure, past 30 days, first small study) was 67%. For the same compound, the “survival at 30 days” value (C3H mice [5]; 8Gy, 75 mg/kg s.c. at 24, 48, 72, 96, 120 hrs (5×24)) was 100% and 75%, the “survival at 30 days” value (C3H mice [5]; 8Gy, 75 mg/kg s.c. at 24, 48, 72, 96, 120 hrs (5×24), listed as Yel2) was 100% and the “survival at 30 days” value (C3H mice [5]; 8Gy, 75 mg/kg s.c. at 1 hr and 25 hrs (1.25 schedule)) was 88%. For the same compound, the percentage of survivors (C3H mice [5]; 8Gy, both protocols, 252 days post irradiation) was 40%, the “animals still alive beyond 30 day window” value (C3H mice [5]; 8Gy, both protocols, +292 days) was 40% and the “survival, oral (gavage) administration” value (C3H mice [5]; 8Gy, oral gavage in saline, 5×24 schedule) was 33%. The “dose modifying factor (DMF)” value (C3H mice [5]; at LD50/30, 7Gy to 9.1 Gy, 75 mg/kg 5×24 s.c.) was 1.15, the “recovery of total white blood cells, red blood cells, and platelets” value (C3H mice [6]; 75 mg/kg s.c. 5×24) was “increases the recovery” and the “recovery of the hematopoietic system” value (C3H mice [6]; 75 mg/kg s.c. 5×24 hr schedule) was “promote the recovery of the hematopoietic system”.
